Source: patent publication US7371731B2, “Methods for using glucose pentasulfate for treating amyloid associated with type II diabetes” (priority 1998, dated 2008)

Biological target: T1, Aβ (1-40) (Homo sapiens, UniProt P05067)
T1 construct: 25 μM of Aβ (1-40)(Bachem Inc., Torrance, Calif., USA; Lot #WM365); purchased Bachem Inc., Torrance, Calif., USA
Experiment: Thioflavin T fluorometry assay of Aβ (1-40) amyloid fibril formation
Format: biochemical
Details: Example 1; 25 μM Aβ (1-40), 1.25 mM compound (1:50 M ratio), 1-week incubation
Source text: A previously described method of measuring amyloid fibril formation utilizing Thioflavin T fluorometry (H Naiki et al, Lab. Invest. 65:104-110, 1991; H Levine III, Protein Sci. 2:404-410, 1993; H Levine III, Amyloid: Int. J. Exp. Clin. Invest. 2:1-6, 1995; H Naiki and K. Nakakuki, Lab. Invest. 74:374-383, 1996) was employed initially to identify potential therapeutic compounds capable of inhibiting Aβ amyloid fibril formation. Using this sensitive assay, any decreases or increases in fluorescence were previously shown to correlate with a decrease or increase in the amount of amyloid fibrils (H Naiki et al, Lab. Invest. 65:104-110, 1991; H Levine III, Protein Sci. 2:404-410, 1993; H Levine III, Amyloid: Int. J. Exp. Clin. Invest. 2:1-6, 1995; H Naiki and K. Nakakuki, Lab. Invest. 74:374-383, 1996), allowing one to determine the identification and extent of potential inhibitors and/or enhancers of amyloid fibril formation.
In an initial set of studies, the effects of various compounds on Aβ (1-40) fibrillogenesis was assessed. For these initial studies, 25 μM of Aβ (1-40)(Bachem Inc., Torrance, Calif., USA; Lot #WM365) was incubated in microcentrifuge tubes at 37° C. for 1 week (in triplicate), either alone, or in the presence of 1.25 mM (ie. 1:50 M ratio of Aβ:test compound) of various commercially available compounds (described below) in 150 mM Tris HCl, 10 mM NaCl, pH 7.0 (TBS). The compounds tested included glucose pentasulfate (PTI-48579, potassium salt; molecular weight=771), mannose pentasulfate (PTI-07499, potassium salt; molecular weight=771), methyl alpha-D-glucopyranoside 2,3,4,6-tetrasulfate (PTI-20049, potassium salt; molecular weight=667), methyl alpha-D-mannopyranoside 2,3,4,6-tetrasulfate (PTI-20814, potassium salt; molecular weight=667), sucrose heptasulfate (PTI-70936, potassium salt; molecular weight=1169), sucrose hexasulfate (PTI-70946, potassium salt; molecular weight=1052), and sucrose octasulfate (PTI-70011, potassium salt; molecular weight=1288).
To assess the effects of each compound on Aβ (1-40) fibril formation, 50 μl aliquots were taken from each tube for analysis at 1 hr, 1 day, 3 days, and 1 week. For each determination described above, following each incubation period, 50 μl of Aβ+/−test compounds were added to 1.2 ml of 100 μM Thioflavin T (Sigma Chemical Co., St. Louis, Mo.) in 50 mM NaPO4 (pH 6.0). […] Fluorescence emission at 482 nm was measured on a Turner instrument-model 450 fluorometer at an excitation wavelength of 450 nm. For each determination, the fluorometer was calibrated by zeroing in the presence of the Thioflavin T reagent alone, and by seting the 50 ng/ml riboflavin (Sigma Chemical Co., St. Louis, Mo.) in the Thioflavin T reagent to 1800 fluorescence units. All fluorescence determinations were based on these references and any fluorescence given off by any of the compounds in the presence of the Thioflavin T reagent was always subtracted from all pertinent readings.
For all fibrillogenesis studies utilizing Thioflavin T fluorometry, comparisons of Aβ in the presence or absence of test compounds were based on paired Student's t tests with data shown as mean+/−standard deviation. Significance was reported at the 95% (p<0.05), 99% (p<0.01) and 99.9% (p<0.001) confidence levels.
In this study, the dose-dependent effects of glucose pentasulfate (PTI-48579) on Aβ (1-40) fibrillogenesis was determined using the Thioflavin T fluorometry assay. 25 μM of Aβ (1-40) (Bachem Inc., Torrance, Calif., USA; Lot #WM365) was incubated in microcentrifuge tubes at 37° C. for 1 week (in triplicate), either alone, or in the presence of 1.25 mM (ie. 1:50 M ratio of Aβ:PTI-48579), 0.41 mM, 0.138 mM and 0.046 mM of glucose pentasulfate in 150 mM Tris HCl, 10 mM NaCl, pH 7.0 (TBS). 50 μl aliquots were taken from each tube for analysis at 1 hr, 1 day, 3 days, and 1 week using Thioflavin T fluorometry as described in section 4.1. […]

T1 sequence (P05067 672-711 limits assumed): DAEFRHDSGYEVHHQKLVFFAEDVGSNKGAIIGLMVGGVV

Row | Compound | effect on Aβ (1-40) amyloid fibril formation (in words)
1 | CO[C@H]1O[C@H](COS(=O)(=O)O)[C@@H](OS(=O)(=O)O)[C@H](OS(=O)(=O)O)[C@@H]1OS(=O)(=O)O [methyl alpha-D-mannopyranoside 2,3,4,6-tetrasulfate, reference compound] | ineffective inhibitors
2 | O=S(=O)(O)OC[C@H]1O[C@@](COS(=O)(=O)O)(O[C@H]2O[C@H](COS(=O)(=O)O)[C@@H](OS(=O)(=O)O)[C@H](OS(=O)(=O)O)[C@H]2OS(=O)(=O)O)[C@@H](OS(=O)(=O)O)[C@@H]1OS(=O)(=O)O [sucrose octasulfate, reference compound] | ineffective inhibitors
3 | sucrose heptasulfate [reference compound] | ineffective inhibitors
4 | sucrose hexasulfate [reference compound] | ineffective inhibitors
